Data from patent publication US20080207617A1, “Quinoline Derivatives and Quinazoline Derivatives Inhibiting Autophosphrylation of Flt3 and Medicinal Compositions Containing the Same” (KIRIN BEER KABUSHIKI KAISHA, priority 2002, published 2008).
Where a name gives a salt, the structure may show the parent alone.

Legend:
[1] = test system: MV4-11; experiment: Cell growth inhibitory test MV4-11 (WST-1); format: cell-based, human; settings: MV4-11 cells, 3 days culture
Procedure, shortened: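 MV4-11 leukemia cells (3×10^3/well, DMEM + 10% FCS) were cultured 3 days with compound in DMSO at 5% CO2. Growth read by WST-1 absorbance at 450 nm (ref 650 nm), normalized to untreated (100%) and cell-free (0%) wells; IC50 from multiple concentrations.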

[2] = test system: MOLM13; experiment: Cell growth inhibitory activity using MTT method (MOLM13); format: cell-based, human; settings: MOLM13 cells

Row | IC50 ([1]; Homo sapiens, MV4-11, 72 h) | IC50 ([2]; Homo sapiens, MOLM-13, 72 h) | IC50 ([1]; hydrochloride) | IC50 ([2]; 72 hr, hydrochloride) | Compound
1 | 0.002 µM | 0.0193 µM |  |  | COc1cc2c(Oc3ccc(NC(=O)NCCC(C)(C)C)cc3F)ccnc2cc1OCCN1CCCCC1 [Compound 44, 1-(3,3-Dimethyl-butyl)-3-{3-fluoro-4-[6-methoxy-7-(2-piperidin-1-yl-ethoxy)-quinolin-4-yloxy]-phenyl}-urea]
2 | < 0.001 µM | 0.0208 µM |  |  | COc1cc2nccc(Oc3ccc(NC(=O)NCCC(C)(C)C)cc3F)c2cc1OC [Compound 10, 1-[4-(6,7-Dimethoxy-quinolin-4-yloxy)-3-fluoro-phenyl]-3-(3,3-dimethyl-butyl)-urea hydrochloride]
3 | 0.001 µM | 0.0133 µM |  |  | COc1cc2nccc(Oc3ccc(NC(=O)NCCC(C)(C)C)cc3Cl)c2cc1OC [Compound 8, 1-[3-Chloro-4-(6,7-dimethoxy-quinolin-4-yloxy)-phenyl]-3-(3,3-dimethyl-butyl)-urea]
4 | 0.012 µM | 0.0325 µM |  |  | COc1cc2c(Oc3ccc(NC(=O)NCCC(C)(C)C)c(F)c3)ccnc2cc1OCCN1CCCCC1 [Compound 43, 1-(3,3-Dimethyl-butyl)-3-{2-fluoro-4-[6-methoxy-7-(2-piperidin-1-yl-ethoxy)-quinolin-4-yloxy]-phenyl}-urea hydrochloride]
5 |  |  | 0.025 µM | 0.0348 µM | COc1cc2c(Oc3ccc(NC(=O)NCCC(C)(C)C)c(F)c3)ccnc2cc1OCCN1CCOCC1 [Compound 41, 1-(3,3-Dimethyl-butyl)-3-{2-fluoro-4-[6-methoxy-7-(2-morpholin-4-yl-ethoxy)-quinolin-4-yloxy]-phenyl}-urea hydrochloride]
6 | 0.008 µM | 0.0124 µM |  |  | COc1cc2nccc(Oc3c(Cl)cc(NC(=O)NCCC(C)(C)C)cc3Cl)c2cc1OC [Compound 6, 1-[3,5-Dichloro-4-(6,7-dimethoxy-quinolin--4-yloxy)-phenyl]-3-(3,3-dimethyl-butyl)-urea]
7 | < 0.001 µM | 0.0244 µM |  |  | COc1cc2nccc(Oc3ccc(NC(=O)NCCC(C)(C)C)cc3)c2cc1OC [Compound 1, 1-[4-(6,7-Dimethoxy-quinolin-4-yloxy)-phenyl]-3-(3,3-dimethyl-butyl)-urea hydrochloride]
